Measurements: US20260217651A1 (priority 2022, published 2026)

Test system: SD rats
Test: animal or person
Assay type: in vivo, rat
Conditions: Rattus norvegicus, iv, read-out: Minimal effective anesthetic dose(mg/kg)

| SMILES | minimal effective dose |
| --- | --- |
| CCOC(=O)N(c1ccc(C)cc1)N1CCN(c2cc(C(C)C)c(O)c(C(C)C)c2)CC1 [Cpd-66] | 20 to 40 mg/kg |
| CCOC(=O)N(c1cccc(Cl)c1)N1CCN(c2cc(C(C)C)c(O)c([C@H](C)C3CC3)c2)CC1 [Cpd-69] | 10 to 20 mg/kg |
| CCOC(=O)N(c1cccc(C)c1)N1CCN(c2cc(C(C)C)c(O)c([C@H](C)C3CC3)c2)CC1 [Cpd-70] | 10 to 20 mg/kg |
| CCOC(=O)N(c1ccc(Cl)cc1)N1CCN(c2cc(C(C)C)c(O)c([C@H](C)C3CC3)c2)CC1 [Cpd-73] | 10 to 20 mg/kg |
| CCOC(=O)N(c1ccc(OC)c(OC)c1)N1CCN(c2cc(C(C)C)c(O)c(C(C)C)c2)CC1 [Cpd-96] | 20 to 40 mg/kg |
| CCOC(=O)N(c1ccc(SC)cc1)N1CCN(c2cc(C(C)C)c(O)c(C(C)C)c2)CC1 [Cpd-97] | 5 to 10 mg/kg |
| CCCOc1ccc(N(C(=O)OCC)N2CCN(c3cc(C(C)C)c(O)c(C(C)C)c3)CC2)cc1 [Cpd-99] | 10 to 20 mg/kg |
| CCOC(=O)N(c1ccc(OC(C)C)cc1)N1CCN(c2cc(C(C)C)c(O)c(C(C)C)c2)CC1 [Cpd-100] | 20 to 40 mg/kg |
| CCOC(=O)N(c1ccc(OCC(C)C)cc1)N1CCN(c2cc(C(C)C)c(O)c(C(C)C)c2)CC1 [Cpd-104] | 20 to 40 mg/kg |
| CCOC(=O)N(c1ccccc1)N1CCN(c2cc(C(C)C)c(O)c([C@@H](C)C3CC3)c2)CC1 [Cpd-105] | 5 to 10 mg/kg |
| CCOC(=O)N(c1ccc(OC)cc1)N1CCN(c2cc(C(C)C)c(O)c([C@@H](C)C3CC3)c2)CC1 [Cpd-107] | 5 to 10 mg/kg |
| COc1ccc(C2(C(=O)OC(C)C)CCN(c3cc(C(C)C)c(O)c(C(C)C)c3)CC2)cc1 [Cpd-123] | 20 to 40 mg/kg |
| CCOC(=O)N(Cc1ccc(OC)cc1)N1CCN(c2cc(C(C)C)c(O)c(C(C)C)c2)CC1 [Cpd-124] | 20 to 40 mg/kg |
| CCOC(=O)N(Cc1ccsc1)N1CCN(c2cc(C(C)C)c(O)c(C(C)C)c2)CC1 [Cpd-125] | 10 to 20 mg/kg |

Same assay, conditions: rat, in vivo, iv

| SMILES | Onset time | Righting Reflex Duration | Sedation Duration |
| --- | --- | --- | --- |
| CCOC(=O)N(c1ccc(C)cc1)N1CCN(c2cc(C(C)C)c(O)c(C(C)C)c2)CC1 [Cpd-66] | 0.22 min | 40.40 min | 115.20 min |
| CCOC(=O)N(c1cccc(Cl)c1)N1CCN(c2cc(C(C)C)c(O)c([C@H](C)C3CC3)c2)CC1 [Cpd-69] | 0.68 to 2.12 min | 1.28 to 74.05 min | 19.78 to 160.07 min |
| CCOC(=O)N(c1cccc(C)c1)N1CCN(c2cc(C(C)C)c(O)c([C@H](C)C3CC3)c2)CC1 [Cpd-70] | 0.38 to 1.07 min | 5.02 to 39.35 min | 48.32 to 106.60 min |
| CCOC(=O)N(c1ccc(Cl)cc1)N1CCN(c2cc(C(C)C)c(O)c([C@H](C)C3CC3)c2)CC1 [Cpd-73] | 0.83 to 1.65 min | 8.78 to 25.28 min | 44.83 to 119.62 min |
| CCOC(=O)N(c1ccc(OC)c(OC)c1)N1CCN(c2cc(C(C)C)c(O)c(C(C)C)c2)CC1 [Cpd-96] | 0.13 to 0.75 min | 1.32 to 43.20 min | 86.20 to 295.93 min |
| CCOC(=O)N(c1ccc(SC)cc1)N1CCN(c2cc(C(C)C)c(O)c(C(C)C)c2)CC1 [Cpd-97] | 0.20 to 0.60 min | 5.25 to 32.28 min | 31.60 to 83.28 min |
| CCCOc1ccc(N(C(=O)OCC)N2CCN(c3cc(C(C)C)c(O)c(C(C)C)c3)CC2)cc1 [Cpd-99] | 1.03 to 1.38 min | 25.58 to 25.87 min | 67.73 to 88.57 min |
| CCOC(=O)N(c1ccc(OC(C)C)cc1)N1CCN(c2cc(C(C)C)c(O)c(C(C)C)c2)CC1 [Cpd-100] | 0.37 to 0.95 min | 6.65 to 26.68 min | 62.20 to 114.60 min |
| CCOC(=O)N(c1ccc(OCC(C)C)cc1)N1CCN(c2cc(C(C)C)c(O)c(C(C)C)c2)CC1 [Cpd-104] | 0.42 min | 59.33 min | 377.87 min |
| CCOC(=O)N(c1ccccc1)N1CCN(c2cc(C(C)C)c(O)c([C@@H](C)C3CC3)c2)CC1 [Cpd-105] | 0.68 to 1.80 min | 0.24 to 22.82 min | 50.17 to 52.20 min |
| CCOC(=O)N(c1ccc(OC)cc1)N1CCN(c2cc(C(C)C)c(O)c([C@@H](C)C3CC3)c2)CC1 [Cpd-107] | 0.42 to 1.52 min | 0.72 to 34.8 min | 34.37 to 73.58 min |
| COc1ccc(C2(C(=O)OC(C)C)CCN(c3cc(C(C)C)c(O)c(C(C)C)c3)CC2)cc1 [Cpd-123] | 0.77 min | 24.08 min | 75.50 min |
| CCOC(=O)N(Cc1ccc(OC)cc1)N1CCN(c2cc(C(C)C)c(O)c(C(C)C)c2)CC1 [Cpd-124] | 0.15 to 0.68 min | 2.83 to 65.08 min | – |
| CCOC(=O)N(Cc1ccsc1)N1CCN(c2cc(C(C)C)c(O)c(C(C)C)c2)CC1 [Cpd-125] | 1.22 min | 6.87 min | 53.93 min |

Test system: SD rats
Test: animal or person
Assay type: in vivo
Conditions: Rattus norvegicus, iv, read-out: Minimal effective analgesic dose(mg/kg)

| SMILES | minimal effective dose |
| --- | --- |
| CCOC(=O)N(c1ccc(C)cc1)N1CCN(c2cc(C(C)C)c(O)c(C(C)C)c2)CC1 [Cpd-66] | 20 to 40 mg/kg |
| CCOC(=O)N(c1cccc(Cl)c1)N1CCN(c2cc(C(C)C)c(O)c([C@H](C)C3CC3)c2)CC1 [Cpd-69] | 10 to 20 mg/kg |
| CCOC(=O)N(c1cccc(C)c1)N1CCN(c2cc(C(C)C)c(O)c([C@H](C)C3CC3)c2)CC1 [Cpd-70] | 10 to 20 mg/kg |
| CCOC(=O)N(c1ccc(Cl)cc1)N1CCN(c2cc(C(C)C)c(O)c([C@H](C)C3CC3)c2)CC1 [Cpd-73] | 20 to 40 mg/kg |
| CCOC(=O)N(c1ccc(OC)c(OC)c1)N1CCN(c2cc(C(C)C)c(O)c(C(C)C)c2)CC1 [Cpd-96] | 20 to 40 mg/kg |
| CCOC(=O)N(c1ccc(SC)cc1)N1CCN(c2cc(C(C)C)c(O)c(C(C)C)c2)CC1 [Cpd-97] | 10 to 20 mg/kg |
| CCCOc1ccc(N(C(=O)OCC)N2CCN(c3cc(C(C)C)c(O)c(C(C)C)c3)CC2)cc1 [Cpd-99] | 10 to 20 mg/kg |
| CCOC(=O)N(c1ccc(OC(C)C)cc1)N1CCN(c2cc(C(C)C)c(O)c(C(C)C)c2)CC1 [Cpd-100] | 20 to 40 mg/kg |
| CCOC(=O)N(c1ccc(OCC(C)C)cc1)N1CCN(c2cc(C(C)C)c(O)c(C(C)C)c2)CC1 [Cpd-104] | 20 to 40 mg/kg |
| CCOC(=O)N(c1ccccc1)N1CCN(c2cc(C(C)C)c(O)c([C@@H](C)C3CC3)c2)CC1 [Cpd-105] | 10 to 20 mg/kg |
| CCOC(=O)N(c1ccc(OC)cc1)N1CCN(c2cc(C(C)C)c(O)c([C@@H](C)C3CC3)c2)CC1 [Cpd-107] | 10 to 20 mg/kg |
| COc1ccc(C2(C(=O)OC(C)C)CCN(c3cc(C(C)C)c(O)c(C(C)C)c3)CC2)cc1 [Cpd-123] | 20 to 40 mg/kg |
| CCOC(=O)N(Cc1ccc(OC)cc1)N1CCN(c2cc(C(C)C)c(O)c(C(C)C)c2)CC1 [Cpd-124] | 20 to 40 mg/kg |
| CCOC(=O)N(Cc1ccsc1)N1CCN(c2cc(C(C)C)c(O)c(C(C)C)c2)CC1 [Cpd-125] | 10 to 20 mg/kg |
